Source: patent publication EP0182608B1, “Polycyclic compounds, their preparation and formulations containing them” (priority 1984, dated 1986)

Test system: P388/0 tumor cells
Experiment: Lymphocytic Leukemia P388/0 Test
Format: in vivo, CD2-F₁ mice
Settings: for LD₂₀: CD2-F₁ mice, intraperitoneally on days 1, 5 and 9; for 30 DAY Survivors: at the optimal dose, survivors out of 6 animals per dose level group; for T/C x 100% (Excluding 30 Day Survivors): ratio of median survival time treated/control at the optimal dose, i.p. days 1, 5, 9, criterion for activity T/C x 100 ≧120%
Text: Methods for evaluating the antitumor activity of these compounds are essentially those used in the Tumor Panel by the Development Therapeutics Program, Division of Cancer Treatment, National Cancer Institute, A. Goldin, et al., Methods in Cancer Research, Vol. XVI, p. 165, Academic Press (1979). Some modifications, in dose level and schedule have been made to increase the testing efficiency.
CD2-F₁ mice, of the same sex weighing within 20±3g, are used for this test. Control and test animals are injected intraperitoneally with a suspension of 10⁶ viable P388/0 tumor cells on day 0. In each test several dose levels which bracket the LD₂₀ for the compound are evaluated; each dose level group contains 6 animals. The test compounds are prepared either in physiologic saline containing 0.05% Tween 80 or distilled water containing 5% dextrose and are administered intraperitoneally on days, 1, 5, and 9 relative to tumor implant. Doses are on a mg/kg basis according to individual animals' body weights. the day of death for each animal is recorded, the median identified for each group and the ratios of median survival time for treated (T)/control (C) groups are calculated. The criterion for activity is T/C x 100 ≧120%.

Compound	LD₂₀ [mg/kg]	30 DAY Survivors	T/C x 100% (Excluding 30 Day Survivors)
2-Methyl-2-[[(7-methyl-7-H-benzo[c]carbazol-10-yl) methyl]amino-1,3-propanediol hydrochloride 3/10 hydrate [Example 4C]	55	6/6	no deaths
CC(CO)(CO)NCc1cc2c3ccccc3sc2c2ccccc12 [Example 1, 2-((Benzo[b]naphtho [2,1-d]thiophen-5-ylmethyl)amino)-2-methyl-1,3-propanediol methanesulfonate]	35	1/6	+210%
CC(CO)(CO)NCc1c2ccccc2cc2c1oc1ccccc12 [Example 2B, 2-((Benzo[b]naphtho[2,3-d]furan-6-ylmethyl)amino]2-methyl-1,3-propanediol methanesulfonate]	125	1/6	+204%
CC(CO)(CO)NCc1cc2oc3ccccc3c2c2ccccc12 [Example 3B, 2-((Benzo[b]naphtho[1,2-d]furan-5-ylmethyl)amino)-2-methyl-1,3-propanediol methanesulfonate]	10	2/6	+230%
CC(CO)(CO)NCc1cc2c3ccccc3oc2c2ccccc12 [Example 5B]	100	4/6	+255%
CC(CO)(CO)NCc1cccc2cc3c(cc12)oc1ccccc13 [Example 6B, 2-[(Benzo[b]naphthol[2,3-d]furan-7-ylmethyl)amino]-2-methyl-1,3-propanediol methanesulphonate 1/4 hydrate]	35	0/6	+210%
